Experimental data published in patent US20230033360A1, “COMPOUNDS AS CD73 INHIBITORS” (BioArdis LLC, priority 2019, published 2023).
pIC50: −log10 of the molar value.

These molecules were tested against T1, Recombinant Human 5′-Nucleotidase (CD73) (Homo sapiens, UniProt P21589) (assay: CD73 Enzyme Assay (PiColorLock inorganic phosphate detection, AMP substrate)). Settings: human CD73 0.5 nM, AMP 30 μM, 20 min at 37° C., absorbance 635 nm; read-out: Potency (IC50).
T1 construct: CHO derived CD73 (Trp27-Lys547), with a C-terminal 6-His tag; 6-His (C); purchased R&D 5795-EN; host or cells: CHO
T1 sequence (P21589 27-547): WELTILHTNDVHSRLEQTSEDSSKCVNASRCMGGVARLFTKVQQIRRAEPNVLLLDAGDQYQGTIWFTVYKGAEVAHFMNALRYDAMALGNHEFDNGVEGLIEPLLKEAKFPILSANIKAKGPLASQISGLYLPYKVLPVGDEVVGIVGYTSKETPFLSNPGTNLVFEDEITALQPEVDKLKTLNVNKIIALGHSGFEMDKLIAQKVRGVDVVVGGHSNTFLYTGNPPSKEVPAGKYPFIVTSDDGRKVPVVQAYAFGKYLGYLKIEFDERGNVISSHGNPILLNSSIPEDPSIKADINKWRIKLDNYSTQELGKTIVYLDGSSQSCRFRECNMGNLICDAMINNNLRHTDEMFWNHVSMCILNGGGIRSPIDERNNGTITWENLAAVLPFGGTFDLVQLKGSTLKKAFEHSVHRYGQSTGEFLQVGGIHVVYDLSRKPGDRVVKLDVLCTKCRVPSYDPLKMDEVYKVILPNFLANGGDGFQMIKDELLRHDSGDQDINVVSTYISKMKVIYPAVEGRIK
Type: biochemical
Text: Soluble recombinant CD73 catalyzes the conversion of adenosine monophosphate (AMP) to adenosine and inorganic phosphate. The phosphate detection reagent, PiColorLock™ (Innova Bioscience, Cat #303-0125) is based on the change in absorbance of the dye malachite green in the presence of inorganic phosphate (Pi) and this property can be exploited to measure any enzyme that generates Pi. Recombinant Human 5′-Nucleotidase (CD73) (R&D #5795-EN, CHO derived CD73 (Trp27-Lys547), with a C-terminal 6-His tag) was used in the enzymatic assay. This assay, run in a 384-well plate format (Corning® NBS™ 384 well plates, Cat #3640), is a generic method for measuring inorganic phosphate. The basic assay procedure involves two steps: 1) Enzyme reaction: The CD73 enzyme (R&D #5795-EN) is incubated in the presence or absence of compounds. AMP (sigma, cat #01930) is added to start the […] reaction. 2) Detection step: Gold mix is added to the assay system, then stabilizers are added. After incubation the absorbance of the solution is read at OD 635 nm. The recorded OD signal is proportional to the enzyme activity.
Briefly, 25 μl human CD73 (0.5 nM final concentration) in the enzymatic buffer solutions (20 mM Tris, 25 mM NaCl, 1 mM MgCl2, pH 7.5, 0.005% Tween-20) were mixed with various concentrations of the test compound (dissolved in 100% DMSO). These solutions were incubated for 15 min at 25° C., and subsequently 25 μl AMP (30 μM final concentration) was added to start the reaction. The final reaction mixture of enzyme-substrate-compound was incubated for 20 min at 37° C. Meanwhile ‘Gold mix’ was prepared shortly before use by adding 1/100 vol. of accelerator to the PiColorLock™ Gold reagent. 12 μL/well of the ‘Gold mix’ was added to assay plate containing 50 μL enzyme reaction buffer and incubated at 25° C. for 5 min. 5 μL/well stabilizer was added to the assay plate and incubated at 25° C. for 30 min. The absorbance of the well solutions was measured at 635 nm on a Spark 10M instrument (TECAN).
The percent (%) inhibition at each concentration of a compound was calculated relative to the […] value in the Max and Min control wells contained within each assay plate. The Max control wells contained enzyme and substrate as 0% inhibition, and the Min control wells only contained substrate without enzyme as 100% inhibition. The concentrations and percent inhibition values for a test compound are plotted and the concentration of the compound required to achieve 50% inhibition (IC50) was determined with a four-parameter logistic dose response equation.

Row | SMILES | pIC50
1 | O=P(O)(O)CP(=O)(O)OC[C@H]1O[C@@H](c2ncc3c(N4CCCC4)cc(Cl)nn23)[C@H](O)[C@@H]1O [Example S38, [({[(2R,3S,4R,5S)-5-[2-chloro-4-(pyrrolidin-1-yl)imidazo[1,5-b]pyridazin-7-yl]-3,4-dihydroxyoxolan-2-yl]methoxy}(hydroxy)phosphoryl)methyl]phosphonic acid] | 8.00 to 9.00
2 | O=P(O)(O)CP(=O)(O)OC[C@H]1O[C@@H](c2ncc3c(N4CC5CC5C4)cc(Cl)nn23)[C@H](O)[C@@H]1O (stereo partly drawn) [Example S39, (((((2R,3S,4R,5S)-5-(4-(3-azabicyclo[3.1.0]hexan-3-yl)-2-chloroimidazo[1,5-b]pyridazin-7-yl)-3,4-dihydroxytetrahydrofuran-2-yl)methoxy)(hydroxy)phosphoryl)methyl)phosphonic acid] | 8.00 to 9.00
3 | O=P(O)(O)CP(=O)(O)OC[C@H]1O[C@@H](c2ncc3c(N4CCc5ccccc54)cc(Cl)nn23)[C@H](O)[C@@H]1O [Example S40, [({[(2R,3S,4R,5S)-5-[2-chloro-4-(2,3-dihydroindol-1-yl)imidazo[1,5-b]pyridazin-7-yl]-3,4-dihydroxyoxolan-2-yl]methoxy}(hydroxy)phosphoryl)methyl]phosphonic acid] | 8.00 to 9.00
4 | O=P(O)(O)CP(=O)(O)OC[C@H]1O[C@@H](c2csc3c(N4CC5CCCC5C4)nc(Cl)nc23)[C@H](O)[C@@H]1O (stereo partly drawn) [Example S41, [({[(2R,3S,4R,5S)-5-(2-chloro-4-{hexahydro-1H-cyclopenta[c]pyrrol-2-yl}thieno[3,2-d]pyrimidin-7-yl)-3,4-dihydroxyoxolan-2-yl]methoxy}(hydroxy)phosphoryl)methyl]phosphonic acid] | 7.00 to 8.00
5 | O=P(O)(O)CP(=O)(O)OC[C@H]1O[C@@H](c2csc3c(N4CCCC4)cc(Cl)nc23)[C@H](O)[C@@H]1O [Example S42, [({[(2R,3S,4R,5S)-5-[5-chloro-7-(pyrrolidin-1-yl)thieno[3,2-b]pyridin-3-yl]-3,4-dihydroxyoxolan-2-yl]methoxy}(hydroxy)phosphoryl)methyl]phosphonic acid] | 8.00 to 9.00
6 | O=P(O)(O)CP(=O)(O)OC[C@H]1O[C@@H](c2csc3c(N4CC5CCCC5C4)cc(Cl)nc23)[C@@H](F)[C@@H]1O (stereo partly drawn) [Example S43, (((((2R,3R,4S,5S)-5-(5-chloro-7-(hexahydrocyclopenta[c]pyrrol-2 (1H)-yl)thieno[3,2-b]pyridin-3-yl)-4-fluoro-3-hydroxytetrahydrofuran-2-yl)methoxy)(hydroxy)phosphoryl)methyl)phosphonic acid] | 7.00 to 8.00
7 | O=P(O)(O)CP(=O)(O)OC[C@H]1O[C@@H](c2csc3c(N4CC5CCCC5C4)nc(Cl)nc23)[C@@H](F)[C@@H]1O (stereo partly drawn) [Example S44, [({[(2R,3R,4S,5S)-5-(2-chloro-4-{hexahydro-1H-cyclopenta[c]pyrrol-2-yl}thieno[3,2-d]pyrimidin-7-yl)-4-fluoro-3-hydroxyoxolan-2-yl]methoxy}(hydroxy)phosphoryl)methyl]phosphonic acid] | 7.00 to 8.00
